Data reported in PubChem BioAssay AID330 (DTP/NCI, 2004).
Values joined by “and” are separate entries in the source; they are usually repeats but may differ in a detail not shown here. Equal values may be shown once. Toxic doses and inconclusive results are not listed. Rule for the calls: active = survival T/C of 150% or more; inactive = T/C below 125% in these data.

Tested on: P388 leukemia ip, CD2F1 mice, survival T/C
Assay: NCI In Vivo Anticancer Drug Screen. Data for tumor model P388 Leukemia (intraperitoneal) in CD2F1 (CDF1) mice
Conditions: endpoint: median survival time, higher = longer survival
How it was run: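 Mice carrying the transplanted tumor received test compound or vehicle. Survival was recorded in each group, and the value is the treated-group measurement divided by that of the vehicle-treated control group.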

[1] = dose: 50.0 mg/kg/injection, schedule: Q01DX009 (ip), vehicle: Klucel (hydroxypropylcellulose) (HPC)
[2] = dose: 100.0 mg/kg/injection, schedule: Q01DX009 (ip), vehicle: Klucel (hydroxypropylcellulose) (HPC)
[3] = dose: 200.0 mg/kg/injection, schedule: Q01DX009 (ip), vehicle: Klucel (hydroxypropylcellulose) (HPC)
[4] = dose: 50.0 mg/kg/injection, schedule: Q01DX005 (ip), vehicle: Klucel (hydroxypropylcellulose) (HPC)
[5] = dose: 100.0 mg/kg/injection, schedule: Q01DX005 (ip), vehicle: Klucel (hydroxypropylcellulose) (HPC)
[6] = dose: 200.0 mg/kg/injection, schedule: Q01DX005 (ip), vehicle: Klucel (hydroxypropylcellulose) (HPC)
[7] = dose: 25.0 mg/kg/injection, schedule: Q04DX003 (ip), vehicle: saline with Tween-80
[8] = dose: 50.0 mg/kg/injection, schedule: Q01DX009 (ip), vehicle: saline with Tween-80
[9] = dose: 100.0 mg/kg/injection, schedule: Q01DX009 (ip), vehicle: saline with Tween-80
[10] = dose: 200.0 mg/kg/injection, schedule: Q01DX009 (ip), vehicle: saline with Tween-80
[11] = dose: 12.5 mg/kg/injection, schedule: Q01DX009 (ip), vehicle: saline
[12] = dose: 25.0 mg/kg/injection, schedule: Q01DX009 (ip), vehicle: saline
[13] = dose: 50.0 mg/kg/injection, schedule: Q01DX009 (ip), vehicle: saline
[14] = dose: 50.0 mg/kg/injection, schedule: Q01DX005 (ip), vehicle: saline
[15] = dose: 100.0 mg/kg/injection, schedule: Q01DX005 (ip), vehicle: saline
[16] = dose: 200.0 mg/kg/injection, schedule: Q01DX005 (ip), vehicle: saline
[17] = dose: 100.0 mg/kg/injection, schedule: Q01DX005 (ip), vehicle: saline with Tween-80

Measured: T/C

CN(CCCCCl)C(=O)Oc1ccccc1
inactive: [1] 102 % of control | [2] 106 % of control | [3] 99 % of control

CN1C(=O)/C(=N\n2c(-c3ccccc3)nc3ccccc3c2=O)c2ccccc21
inactive: dose: 25.0 mg/kg/injection, schedule: Q01DX005 (ip), vehicle: Klucel (hydroxypropylcellulose) (HPC) 91 % of control | [4] 87 % of control and 88 % of control | [5] 102 % of control and 89 % of control | [6] 100 % of control

CCC(=O)NCC(=O)O
inactive: dose: 3.13 mg/kg/injection, schedule: Q01DX009 (ip), vehicle: saline with Tween-80 100 % of control | dose: 6.25 mg/kg/injection, schedule: Q01DX009 (ip), vehicle: saline with Tween-80 104 % of control and 86 % of control | dose: 6.25 mg/kg/injection, schedule: Q04DX003 (ip), vehicle: saline with Tween-80 110 % of control | dose: 12.5 mg/kg/injection, schedule: Q01DX009 (ip), vehicle: saline with Tween-80 109 % of control | dose: 12.5 mg/kg/injection, schedule: Q04DX003 (ip), vehicle: saline with Tween-80 100 % of control | [7] 100 % of control

O=C(O)c1c(Cl)c(Cl)c(Cl)c(Cl)c1C(=O)OCC1CCCO1 (centres undefined)
inactive: [8] 90 % of control | [9] 106 % of control | [10] 101 % of control

CC(=O)Nc1c(Cl)cc2c(c1Cl)Cc1cc(N(CCO)CCO)ccc1-2
inactive: dose: 6.25 mg/kg/injection, schedule: Q01DX009 (ip), vehicle: saline 97 % of control | [11] 93 % of control | [12] 93 % of control | [13] 94 % of control

O=S(=O)(Nc1ccccc1)c1ccc(C2CC3(Cl)C(Cl)=C(Cl)C2(Cl)C3(Cl)Cl)cc1 (centres undefined)
inactive: dose: 100.0 mg/kg/injection, schedule: Q01DX009 (ip), vehicle: saline sonified 90 % of control | dose: 200.0 mg/kg/injection, schedule: Q01DX009 (ip), vehicle: saline sonified 90 % of control | dose: 400.0 mg/kg/injection, schedule: Q01DX009 (ip), vehicle: saline sonified 90 % of control

Cc1noc2nccnc12
inactive: [7] 100 % of control | dose: 50.0 mg/kg/injection, schedule: Q04DX003 (ip), vehicle: saline with Tween-80 91 % of control | dose: 100.0 mg/kg/injection, schedule: Q04DX003 (ip), vehicle: saline with Tween-80 91 % of control

CCCCCCCCCc1cc(=O)n(-c2ccc(C(=O)OCC)cc2)n1C
inactive: [1] 104 % of control | [2] 90 % of control | [3] 93 % of control

Clc1nnc(-c2ccccc2)s1
inactive: dose: 25.0 mg/kg/injection, schedule: Q04DX003 (ip), vehicle: Klucel (hydroxypropylcellulose) (HPC) 100 % of control | dose: 50.0 mg/kg/injection, schedule: Q04DX003 (ip), vehicle: Klucel (hydroxypropylcellulose) (HPC) 102 % of control | dose: 100.0 mg/kg/injection, schedule: Q04DX003 (ip), vehicle: Klucel (hydroxypropylcellulose) (HPC) 100 % of control

CC(=O)OCC1Cn2c(c(-c3ccccc3)c(=O)[nH]c2=S)O1 (centres undefined)
inactive: dose: 100.0 mg/kg/injection, schedule: Q04DX002 (ip), vehicle: Klucel (hydroxypropylcellulose) (HPC) 106 % of control | dose: 200.0 mg/kg/injection, schedule: Q04DX002 (ip), vehicle: Klucel (hydroxypropylcellulose) (HPC) 107 % of control | dose: 400.0 mg/kg/injection, schedule: Q04DX002 (ip), vehicle: Klucel (hydroxypropylcellulose) (HPC) 110 % of control

ClC(Cl)Cl
inactive: dose: 0.25 % in 0.5 ml injection vol, schedule: Q01DX009 (ip), vehicle: water 100 % of control | dose: 0.5 % in 0.5 ml injection vol, schedule: Q01DX009 (ip), vehicle: water 96 % of control | dose: 1.0 % in 0.5 ml injection vol, schedule: Q01DX009 (ip), vehicle: water 100 % of control

CCCCCCCCCC1OCN2CCCCC12 (centres undefined)
inactive: [14] 105 % of control | [15] 96 % of control | [16] 115 % of control

COC1CCC(CO)O1 (centres undefined)
inactive: dose: 50.0 mg/kg/injection, schedule: Q01DX009 (ip), vehicle: suspension in saline 100 % of control | dose: 100.0 mg/kg/injection, schedule: Q01DX009 (ip), vehicle: suspension in saline 108 % of control | dose: 200.0 mg/kg/injection, schedule: Q01DX009 (ip), vehicle: suspension in saline 102 % of control

Nc1ccc(C(=O)CCCN2CCCCC2)cc1
inactive: [11] 104 % of control | dose: 12.5 mg/kg/injection, schedule: Q04DX003 (ip), vehicle: saline 91 % of control | [12] 95 % of control | dose: 25.0 mg/kg/injection, schedule: Q04DX003 (ip), vehicle: saline 95 % of control | [13] 90 % of control | dose: 50.0 mg/kg/injection, schedule: Q04DX003 (ip), vehicle: saline 91 % of control

Nc1ccc[nH]c1=O
inactive: [11] 100 % of control and 113 % of control | [12] 103 % of control | [13] 98 % of control and 103 % of control | dose: 100.0 mg/kg/injection, schedule: Q01DX009 (ip), vehicle: saline 103 % of control and 113 % of control | dose: 400.0 mg/kg/injection, schedule: Q01DX009 (ip), vehicle: saline 100 % of control

O=[N+]([O-])C1=CC(=N/Cl)/C=CC/1=N/Cl
inactive: dose: 12.5 mg/kg/injection, schedule: Q01DX005 (ip), vehicle: saline 105 % of control | dose: 25.0 mg/kg/injection, schedule: Q01DX005 (ip), vehicle: saline 100 % of control | [14] 101 % of control and 97 % of control | [15] 106 % of control | [16] 116 % of control

CC1=CCC2CN(CCN(C)C)CC2C1 (centres undefined)
inactive: dose: 50.0 mg/kg/injection, schedule: Q01DX005 (ip), vehicle: saline with Tween-80 100 % of control | [17] 99 % of control

COc1cc(C)ccc1C1OC(=O)c2c1ccc(OC)c2OC (centres undefined)
inactive: dose: 25.0 mg/kg/injection, schedule: Q01DX009 (ip), vehicle: saline with Tween-80 106 % of control | [8] 101 % of control | [9] 97 % of control | [10] 108 % of control

CSC1=NCc2c(sc3c2CCCC3)N1
inactive: [4] 100 % of control | [5] 106 % of control | [6] 98 % of control

CCOC(=O)Nc1nc2ccc([N+](=O)[O-])cc2s1
inactive: dose: 6.25 mg/kg/injection, schedule: Q01DX009 (ip), vehicle: Klucel (hydroxypropylcellulose) (HPC) 104 % of control | dose: 12.5 mg/kg/injection, schedule: Q01DX009 (ip), vehicle: Klucel (hydroxypropylcellulose) (HPC) 107 % of control | dose: 25.0 mg/kg/injection, schedule: Q01DX009 (ip), vehicle: Klucel (hydroxypropylcellulose) (HPC) 105 % of control

CC(C)c1cccc(C2(C)C(=O)c3ccccc3C2=O)c1
inactive: dose: 100.0 mg/kg/injection, schedule: Q04DX002 (ip), vehicle: saline 99 % of control | dose: 200.0 mg/kg/injection, schedule: Q04DX002 (ip), vehicle: saline 102 % of control | dose: 400.0 mg/kg/injection, schedule: Q04DX002 (ip), vehicle: saline 100 % of control

NC(=O)/C(N=Nc1cc(S(=O)(=O)O)ccc1Cl)=N\Nc1cc(S(=O)(=O)O)ccc1Cl
inactive: [4] 100 % of control | [5] 91 % of control | [6] 94 % of control

NC(=S)c1ccc(N=Cc2cccs2)cc1
inactive: dose: 100.0 mg/kg/injection, schedule: Q01DX001 (ip), vehicle: Klucel (hydroxypropylcellulose) (HPC) 108 % of control | dose: 200.0 mg/kg/injection, schedule: Q01DX001 (ip), vehicle: Klucel (hydroxypropylcellulose) (HPC) 105 % of control | dose: 400.0 mg/kg/injection, schedule: Q01DX001 (ip), vehicle: Klucel (hydroxypropylcellulose) (HPC) 102 % of control

CCCC(=O)ON(C)C(=O)CCC
inactive: [17] 96 % of control | dose: 200.0 mg/kg/injection, schedule: Q01DX005 (ip), vehicle: saline with Tween-80 105 % of control | dose: 400.0 mg/kg/injection, schedule: Q01DX005 (ip), vehicle: saline with Tween-80 117 % of control
